The source of these data is US12150940B2, “WASp-protecting small molecules, compositions, methods and uses thereof in the treatment of innate and acquired immune-related disorders or conditions” (BAR ILAN UNIVERSITY, priority 2016, dated 2024).

The test has as its target T1, WASp (Homo sapiens, UniProt P42768).
T1 construct: endogenous in cells; host or cells: primary human platelets from healthy donors
T1 sequence (P42768 1-502): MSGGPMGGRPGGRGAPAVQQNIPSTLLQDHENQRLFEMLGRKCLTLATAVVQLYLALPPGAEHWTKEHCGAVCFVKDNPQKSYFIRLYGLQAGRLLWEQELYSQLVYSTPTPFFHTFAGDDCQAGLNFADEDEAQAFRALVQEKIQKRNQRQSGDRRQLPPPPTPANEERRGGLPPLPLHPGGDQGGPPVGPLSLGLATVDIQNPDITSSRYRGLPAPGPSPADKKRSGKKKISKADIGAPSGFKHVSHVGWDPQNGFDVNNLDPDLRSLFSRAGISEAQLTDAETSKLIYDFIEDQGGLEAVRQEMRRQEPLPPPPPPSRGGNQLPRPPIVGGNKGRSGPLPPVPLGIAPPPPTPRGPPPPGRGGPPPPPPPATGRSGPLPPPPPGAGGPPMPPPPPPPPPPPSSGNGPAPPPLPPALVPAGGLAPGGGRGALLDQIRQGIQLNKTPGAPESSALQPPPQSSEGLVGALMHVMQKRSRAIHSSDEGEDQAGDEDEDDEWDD
Briefly: WASp expression in TRAP-6-activated platelets (western blot). It is filed as cell-based. How it is done:
FIG. 4A-4B. Freshly-isolated platelets were incubated with SMC #6 or control at 37° C. for the indicated times. The platelets were either stimulated (+) with TRAP-6 (10 μM) or left unstimulated (−), followed by lysis. Lysates were analyzed for WASp expression by immunoblotting with anti-WASp and anti-GAPDH as loading control (FIG. 4A). Relative WASp expression was determined by densitometric analysis and is presented in a summarizing graph of FIG. 4B. Error bars represent the SE from the mean. P values are presented and were calculated by two-tailed Student's t-test. Data are representative of three independent experiments.
Jurkat T-cells (FIG. 5A) or Freshly-isolated PBMCs (FIG. 5B) were incubated for 15 min at 37° C. with either control or the indicated WASp-binding SMCs, followed by co-stimulation with anti-CD3 and anti-CD28 and lysis. Freshly-isolated platelets were incubated for 15 min at 37° C. with either control or the indicated WASp-binding SMCs, followed by stimulation with TRAP-6 (10 μM) and lysis (FIG. 5C). Lysates were analyzed for WASp expression by immunoblotting with anti-WASp and anti-GAPDH as loading control. Western blot is representative of three independent experiments. […] Relative WASp expression was determined by densitometric analysis. […]
FIG. 6A-6D. […] Lysates were analyzed for WASp expression by immunoblotting with anti-WASp and anti-GAPDH as loading control (FIG. 6A). […]
A general note: A western blot detects proteins with antibodies after separation by electrophoresis.

Peptide text beside a SMILES is read from it. * marks the point of attachment. Cbz = O=C(OCc1ccccc1)*

For `CC(C)C[C@@H](C=O)NC(=O)[C@H](CC(C)C)NC(=O)[C@H](CC(C)C)NC(=O)OCc1ccccc1` [MG132] (Cbz-Leu-Leu-Leu-aldehyde), the “increase in WASp expression” value (platelets after 15 min of activation, with vs without proteasome inhibitor (10 μM, 1 h)) was “more than 2 fold”.
In the case of `CC(=O)N[C@H]1C[C@@H](c2ccc3c(c2)nnn3C)O[C@@H](c2ccc(Cl)cc2)C1` [SMC #6, N-[(2R,4R,6S)-2-(4-chlorophenyl)-6-(1-methylbenzotriazol-5-yl)oxan-4-yl]acetamide], the “WASp degradation in activated platelets” value (40 μM, 15 min pre-incubation, vs DMSO control) was “attenuated WASp degradation”.
